Experimental findings from PubChem BioAssay AID200 (DTP/NCI, 2004) are described below.

The test system of this experiment is B6C3F1 mice, B16 melanoma ip, median survival T/C. In words: NCI In Vivo Anticancer Drug Screen. Data for tumor model B16 Melanoma (intraperitoneal) in B6C3F1 mice. Conditions: endpoint: median survival time, higher = longer survival. The method in brief:
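Values are T/C ratios: the measurement in treated animals divided by that in vehicle-treated controls, using survival or tumor size in mice carrying transplantable tumors.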

Where [1] appears, read: dose: 0.5 mg/kg/injection, schedule: Q01DX009 (ip), vehicle: saline.
[2] abbreviates: dose: 1.0 mg/kg/injection, schedule: Q01DX009 (ip), vehicle: saline.
The mark [3] stands for this setting: dose: 2.0 mg/kg/injection, schedule: Q01DX009 (ip), vehicle: saline.
[4] abbreviates: dose: 4.0 mg/kg/injection, schedule: Q01DX009 (ip), vehicle: saline.
Setting [5] is: dose: 50.0 mg/kg/injection, schedule: Q01DX009 (ip), vehicle: saline with Tween-80.
Where [6] appears, read: dose: 100.0 mg/kg/injection, schedule: Q01DX009 (ip), vehicle: saline with Tween-80.
Where [7] appears, read: dose: 6.25 mg/kg/injection, schedule: Q01DX009 (ip), vehicle: saline with Tween-80.
The mark [8] stands for this setting: dose: 12.5 mg/kg/injection, schedule: Q01DX009 (ip), vehicle: saline with Tween-80.
[9] abbreviates: dose: 25.0 mg/kg/injection, schedule: Q01DX009 (ip), vehicle: saline with Tween-80.
Setting [10] is: dose: 200.0 mg/kg/injection, schedule: Q01DX009 (ip), vehicle: saline with Tween-80.
Setting [11] is: dose: 400.0 mg/kg/injection, schedule: Q01DX009 (ip), vehicle: saline with Tween-80.
Where [12] appears, read: dose: 800.0 mg/kg/injection, schedule: Q01DX009 (ip), vehicle: saline with Tween-80.
The mark [13] stands for this setting: dose: 50.0 mg/kg/injection, schedule: Q01DX009 (ip), vehicle: Klucel (hydroxypropylcellulose) (HPC).
Where [14] appears, read: dose: 100.0 mg/kg/injection, schedule: Q01DX009 (ip), vehicle: Klucel (hydroxypropylcellulose) (HPC).
[15] abbreviates: dose: 200.0 mg/kg/injection, schedule: Q01DX009 (ip), vehicle: Klucel (hydroxypropylcellulose) (HPC).
[16] abbreviates: dose: 25.0 mg/kg/injection, schedule: Q01DX009 (ip), vehicle: Klucel (hydroxypropylcellulose) (HPC).

Structures are written as SMILES. Where “and” joins values, the source holds several entries; their conditions need not be identical. Equal values may be shown once. Inconclusive results and toxic doses are left out.

As for `Cc1c(N)nc([C@H](CC(N)=O)NC[C@H](N)C(N)=O)nc1C(=O)N[C@H](C(=O)N[C@H](C)[C@@H](O)CC(=O)N[C@H](C(=O)NC(O[C@@H]1O[C@@H](C)[C@@H](N)[C@@H](O)[C@H]1O)C(O)c1nc(-c2nc(C(=O)NCCCCN)cs2)cs1)[C@@H](C)O)[C@@H](O[C@@H]1O[C@@H](CO)[C@@H](O)[C@H](O)[C@@H]1O[C@H]1O[C@H](CO)[C@@H](O)[C@H](OC(N)=O)[C@@H]1O)c1c[nH]cn1` (stereo not given in full), the T/C reads like this: (dose: 0.25 mg/kg/injection, schedule: Q01DX009 (ip), vehicle: saline) 104 % of control; (dose: 0.4 mg/kg/injection, schedule: Q01DX009 (ip), vehicle: saline) 116 % of control and 94 % of control; under setting [1], 107 % of control; (dose: 0.8 mg/kg/injection, schedule: Q01DX009 (ip), vehicle: saline) 94 % of control; under setting [2], 115 % of control; (dose: 1.6 mg/kg/injection, schedule: Q01DX009 (ip), vehicle: saline) 98 % of control. Moreover, the T/C under setting [3] was 114 % of control; the T/C (dose: 3.2 mg/kg/injection, schedule: Q01DX009 (ip), vehicle: saline) is 101 % of control; the T/C under setting [4] is 121 % of control; the T/C (dose: 6.4 mg/kg/injection, schedule: Q01DX009 (ip), vehicle: saline) was 97 % of control.
Consider `COc1ccc(C(=O)CC2CCCC(CC(=O)c3ccc(OC)cc3)N2C)cc1` (stereo not given), for which the T/C was 103 % of control under setting [5] and 101 % of control under setting [6].
Regarding `CC1=CC(=O)C(O)C2(C)C1CC1OC(=O)C(OC(=O)CC(C)(C)O)C3C(C)C(O)C4(O)OCC13C42` (stereo not given), the T/C by setting is: (dose: 0.25 mg/kg/injection, schedule: Q01DX009 (ip), vehicle: saline + alcohol) 108 % of control; (dose: 0.5 mg/kg/injection, schedule: Q01DX009 (ip), vehicle: saline + alcohol) 116 % of control; (dose: 1.0 mg/kg/injection, schedule: Q01DX009 (ip), vehicle: saline + alcohol) 110 % of control; (dose: 2.0 mg/kg/injection, schedule: Q01DX009 (ip), vehicle: saline + alcohol) 116 % of control; (dose: 4.0 mg/kg/injection, schedule: Q01DX009 (ip), vehicle: saline + alcohol) 120 % of control.
With `c1ccc2c(c1)-c1ccccc1C1NC21` (stereo not given), the T/C reads like this: under setting [7], 103 % of control; under setting [8], 112 % of control.
With `COc1cc(OC)c(NC(=O)ON2C(=O)c3ccccc3C2=O)cc1Cl`, the T/C was 98 % of control (dose: 3.12 mg/kg/injection, schedule: Q01DX009 (ip), vehicle: saline with Tween-80); 104 % of control under setting [7]; 104 % of control under setting [8]; 96 % of control under setting [9]; 87 % of control under setting [5].
On to `CC(C)(C)c1ccc(C(=O)N2CCOC23CCCCC3)cc1`, for which the T/C is, setting by setting: under setting [5], 91 % of control and 101 % of control; under setting [6], 98 % of control and 107 % of control; under setting [10], 94 % of control and 104 % of control; under setting [11], 91 % of control and 104 % of control; under setting [12], 92 % of control and 98 % of control.
`CN(C)CCC(O)c1c[nH]c2ccccc12` (stereo not given): the T/C was 98 % of control under setting [6], 94 % of control under setting [10] and 94 % of control under setting [11].
As for `Cn1c(-c2ccc(/C=N\N3CCN(/N=C/c4ccc(-c5c[n+]6ccsc6n5C)cc4)CC3)cc2)c[n+]2ccsc12`, the T/C is 103 % of control (dose: 0.75 mg/kg/injection, schedule: Q01DX009 (ip), vehicle: saline with Tween-80); 104 % of control (dose: 1.5 mg/kg/injection, schedule: Q01DX009 (ip), vehicle: saline with Tween-80); 113 % of control (dose: 3.0 mg/kg/injection, schedule: Q01DX009 (ip), vehicle: saline with Tween-80); 113 % of control (dose: 6.0 mg/kg/injection, schedule: Q01DX009 (ip), vehicle: saline with Tween-80).
On to `NC(=O)/C=C/c1c[nH]c2nccnc12`, for which the T/C was 86 % of control (dose: 1.56 mg/kg/injection, schedule: Q01DX009 (ip), vehicle: water); 93 % of control (dose: 3.12 mg/kg/injection, schedule: Q01DX009 (ip), vehicle: water); 95 % of control (dose: 6.25 mg/kg/injection, schedule: Q01DX009 (ip), vehicle: water); 102 % of control (dose: 12.5 mg/kg/injection, schedule: Q01DX009 (ip), vehicle: water); 108 % of control (dose: 25.0 mg/kg/injection, schedule: Q01DX009 (ip), vehicle: water).
On to `COc1cccc2c1C(=O)c1c(O)c3c(c(O)c1C2=O)C[C@@](O)(C(C)=O)C[C@@H]3OC1CC(N)C(O)C(C)O1` (stereo not given in full), for which the T/C runs as follows: (dose: 0.12 mg/kg/injection, schedule: Q01DX009 (ip), vehicle: water) 151 % of control; (dose: 0.25 mg/kg/injection, schedule: Q01DX009 (ip), vehicle: water) 171 % of control; (dose: 0.5 mg/kg/injection, schedule: Q01DX009 (ip), vehicle: water) 174 % of control and 186 % of control; (dose: 1.0 mg/kg/injection, schedule: Q01DX009 (ip), vehicle: water) 154 % of control and 285 % of control; (dose: 1.5 mg/kg/injection, schedule: Q01DX001 (ip), vehicle: water) 187 % of control; (dose: 2.0 mg/kg/injection, schedule: Q01DX009 (ip), vehicle: water) 242 % of control and 96 % of control. Besides, the T/C reads like this: (dose: 3.0 mg/kg/injection, schedule: Q01DX001 (ip), vehicle: water) 218 % of control; (dose: 6.0 mg/kg/injection, schedule: Q01DX001 (ip), vehicle: water) 122 % of control.
As to `COc1cc2c(cc1O)N=C[C@@H]1CCC(O)N1C2=O` (mixture of isomers), the T/C was 100 % of control under setting [1]; 100 % of control and 107 % of control under setting [2]; 111 % of control and 106 % of control under setting [3]; 110 % of control and 121 % of control under setting [4]; 115 % of control (dose: 8.0 mg/kg/injection, schedule: Q01DX009 (ip), vehicle: saline).
`CCOC(=O)Nc1cc2c(c(N)n1)N=C(c1ccccc1)CO2`: the T/C reads like this: under setting [9], 112 % of control and 118 % of control; under setting [5], 111 % of control and 118 % of control; under setting [6], 115 % of control and 124 % of control; (dose: 103.68 mg/kg/injection, schedule: Q01DX009 (ip), vehicle: saline with Tween-80) 106 % of control; under setting [11], 150 % of control and 198 % of control; (dose: 480.0 mg/kg/injection, schedule: Q01DX009 (ip), vehicle: saline with Tween-80) 165 % of control. For the same compound, under setting [12], the T/C was 172 % of control.
`CC(C)n1cnc2c(Cl)ncnc21`: the T/C runs as follows: under setting [9], 88 % of control; under setting [5], 104 % of control; under setting [6], 87 % of control.
Take `O=C(O)CNC(=O)C(CSCc1ccccc1)NC(=O)OCc1ccccc1` (stereo not given): the T/C is 95 % of control under setting [13]; 95 % of control under setting [5]; 107 % of control under setting [14]; 88 % of control under setting [6]; 102 % of control under setting [15]; 90 % of control under setting [10].
For the compound `Cc1ccc(N=Nc2c(O)ccc3n[nH]nc23)cc1`, the T/C was 94 % of control under setting [16], 96 % of control under setting [13] and 114 % of control under setting [14].
With `CNC(=O)OCc1c(COC(=O)NC)c(-c2ccc(F)cc2)n2c1CCC2`, the T/C reads like this: (dose: 0.78 mg/kg/injection, schedule: Q01DX009 (ip), vehicle: Klucel (hydroxypropylcellulose) (HPC)) 114 % of control; (dose: 1.56 mg/kg/injection, schedule: Q01DX009 (ip), vehicle: Klucel (hydroxypropylcellulose) (HPC)) 108 % of control; (dose: 3.12 mg/kg/injection, schedule: Q01DX009 (ip), vehicle: Klucel (hydroxypropylcellulose) (HPC)) 122 % of control; (dose: 6.25 mg/kg/injection, schedule: Q01DX009 (ip), vehicle: Klucel (hydroxypropylcellulose) (HPC)) 117 % of control.
On to `CCOC(=O)CNC(=O)Sc1ccc(C(C)(C)C)cc1`, for which the T/C was 100 % of control (dose: 12.5 mg/kg/injection, schedule: Q01DX009 (ip), vehicle: Klucel (hydroxypropylcellulose) (HPC)); 100 % of control under setting [16]; 102 % of control under setting [13]; 105 % of control under setting [14]; 115 % of control under setting [15].
As for `CC(NC(=O)OCC1c2ccccc2-c2ccccc21)C(=O)O` (stereo not given), the T/C by setting is: under setting [14], 104 % of control; under setting [15], 101 % of control; (dose: 400.0 mg/kg/injection, schedule: Q01DX009 (ip), vehicle: Klucel (hydroxypropylcellulose) (HPC)) 87 % of control.
